# Reference: patent US6046219A, “Method for the treatment of conditions mediated by collagen formation together with cell proliferation by application of inhibitors of protein hydroxylation” (Cornell Research Foundation, Inc., priority 1997, dated 2000)
# “Also recorded” adds a separate entry of the source.
# What was measured:
# cell proliferation = settings: Hanauske-Abel et al. 1994; cited from earlier work
# [1] = system: cellular deoxyhypusyl hydroxylase; settings: Hanauske-Abel et al. 1994; cited from earlier work
# [2] = system: prolyl 4-hydroxylase in human lung fibroblast line MRC-5; test: Assay of cellular human prolyl 4-hydroxylase / collagen secretion in MRC-5 lung fibroblasts; type: cell-based; settings: human lung fibroblasts MRC-5, FIG. 5a-f
# Description: FIGS. 5a-f show, as percent of uninhibited controls, the suppressive effect of six hydroxypyridone compounds on prolyl 4-hydroxylation in a human lung fibroblast line ("MRC-5"). Those cells were pretreated with inhibitor for 30 minutes prior to routine metabolic labeling with tritiated proline ("Pro") for 24 hours, followed by standard hydrolysis and separation of amino acids from both supernatant and cells for determination of proline conversion into hydroxyproline ("Hyp").
# The established human lung fibroblast line MRC-5 was used, maintained, and propagated by routine cell culture techniques.
# SMC or MRC-5 cells (3-5×10^6 cells/35 mm well) were labeled in the presence or absence of hydroxypyridones, with ^3 H-proline (Pro) (4 μCi/ml) for 24 hours in proline- and serum-free Dulbecco […] ("DMEM") containing 50 μg/ml sodium ascorbate and 20 μg/ml β-aminopropionitrile. […] The hydrolysate was derivatized with phenylisothiocyanate and analyzed for ^3 H-proline ("Pro") and ^3 H-hydroxyproline ("Hyp") by HPLC on a reverse-phase C18 column, using an automated HPLC system (Hewlett-Packard, Wilmington, Del.) with an in-line scintillation counter (Inus Systems, Inc., Tampa, Fla.). The position of proline and hydroxyproline was determined from tritiated standards.
# type I procollagen = test: Type I procollagen secretion by SMC; type: cell-based; settings: human SMC, FIG. 6b
# Description: Type III collagen biosynthesis (FIG. 6a) was assessed by a commercial radioimmunoassay using a monoclonal antibody to the N-terminal propeptide of type III procollagen. Plasminogen activator inhibitor-1 ("PAI-1") activity was measured by a standard enzymatic method. Type I collagen biosynthesis (FIG. 6b) was assessed by routine Western blot using a monoclonal antibody to the C-terminal propeptide of type I procollagen.
# SMC or MRC-5 cells (3-5×10^6 cells/35 mm well), incubated in serum-free DMEM containing 50 μg/ml sodium ascorbate and 20 μg/ml β-aminopropionitrile, are exposed for 24 hours to increasing concentrations of hydroxypyridones. After centrifugation, to clear any cellular debris, these supernatants are used to determine the levels of type I and III procollagens, using commercially available radioimmunoassays (Incstar and Behringwerke, respectively).
# Human SMC (3-5×10^5 cells/35 mm well), grown to confluency and incubated in serum-free DMEM containing 50 μg/ml sodium ascorbate and 20 μg/ml β-aminopropionitrile, were exposed for 24 hours to increasing concentrations of test compounds. […] Type I procollagen biosynthesis also was quantified by Western analysis in the following manner. […] Immunoblots were scanned with a UMAX UC630 flatbed scanner and quantified densitometrically using standard software.
# [3] = target: T1, purified human prolyl 4-hydroxylase (Homo sapiens, UniProt P13674); test: Assay of purified human prolyl 4-hydroxylase (14CO2 release from 2-oxoglutarate, cell-free); type: biochemical
# T1 construct: made in house; host or cells: Spodoptera frugiperda insect cells (baculovirus, co-expression of α- and β-subunits)
# Description: The effect on the enzyme was determined in a cell-free system by measuring the oxidative decarboxylation of its cofactor 2-oxoglutarate via release of radiolabeled carbon dioxide in a standard reaction mixture also containing ascorbate, ferrous sulfate, and unhydroxylated peptide substrate.
# The inhibitory action of the substances according to the invention, for example on collagen secretion or cell proliferation, can be tested in direct assays of the enzymes mediating the pivotal protein hydroxylations for these biological processes, such as prolyl 4-hydroxylase and deoxyhypusyl hydroxylase. This entails the enzymatic hydroxylation of the appropriate protein precursor, either by the cellular or the purified enzyme, in the presence or absence of compounds of Formulae (I) or (II), with concomitant determination of co-substrate utilization by these enzymes or subsequent isolation of the hydroxylated amino acid and its unhydroxylated precursor. In this manner, the inhibitory potency of any given compound can be measured in the cell-free system, in cell culture, or in tissue, and is expressed as the inhibitory dose that gives a 50% reduction of the enzyme-mediated reaction (ID50). Enzyme is tested in analogy to the method of A. Abbruzzese, H. M. Hanauske-Abel, et al., Biochem. Biophys. Acta, 1077, 159-166 (1991) and of K. Majamaa, H. M. Hanauske-Abel, et al., Eur. J. Biochem. 138, 239-245 (1984), which are hereby incorporated by reference. Table III lists the ID50 values of some of the compounds according to the invention, using purified human prolyl 4-hydroxylase and cellular human deoxyhypusyl hydroxylase as representative protein hydroxylases.
# The inhibiting effect of hydroxypyridones on the collagen-hydroxylating enzyme was studied in a cell-free system.
# Assay of purified human prolyl 4-hydroxylase
# The native α2 β2 -tetrameric enzyme was purified to homogeneity by poly(L-proline) affinity chromatography and DEAE chromatography from the supernatant of Spodoptera frugiperda insect cells cotransfected with recombinant baculovirus transfer vectors for both the human α- and β-subunits. Enzyme activity was determined by trapping of ^14 CO2 released from 2-oxo[1-^14 C][glutarate] according to the procedure of Majamaa, et al., Eur. J. Biochem., 138:239-245 (1984), which is hereby incorporated by reference. Briefly, all incubations were run for 60 minutes at 37° C. in a final volume of 1.0 ml per test sample, containing 0.1 μg enzyme, 0.1 mg heat-denatured (Pro-Pro-Gly)10 ×9 H2 O as hydroxylatable substrate, 0.1 mM 2-oxo[1-^14 C][glutarate] adjusted to 60,000 dpm by mixing with the unlabeled 2-oxoglutarate as cosubstrate, and cofactors (1.6 mM ascorbate, 0.05 mM ferrous sulfate, 0.08 mM dithiothreitol, 2 mg bovine serum albumin, 5 μL catalase). Assays are performed with only one of the active compounds at any given time.
# T1 sequence (P13674 18-534): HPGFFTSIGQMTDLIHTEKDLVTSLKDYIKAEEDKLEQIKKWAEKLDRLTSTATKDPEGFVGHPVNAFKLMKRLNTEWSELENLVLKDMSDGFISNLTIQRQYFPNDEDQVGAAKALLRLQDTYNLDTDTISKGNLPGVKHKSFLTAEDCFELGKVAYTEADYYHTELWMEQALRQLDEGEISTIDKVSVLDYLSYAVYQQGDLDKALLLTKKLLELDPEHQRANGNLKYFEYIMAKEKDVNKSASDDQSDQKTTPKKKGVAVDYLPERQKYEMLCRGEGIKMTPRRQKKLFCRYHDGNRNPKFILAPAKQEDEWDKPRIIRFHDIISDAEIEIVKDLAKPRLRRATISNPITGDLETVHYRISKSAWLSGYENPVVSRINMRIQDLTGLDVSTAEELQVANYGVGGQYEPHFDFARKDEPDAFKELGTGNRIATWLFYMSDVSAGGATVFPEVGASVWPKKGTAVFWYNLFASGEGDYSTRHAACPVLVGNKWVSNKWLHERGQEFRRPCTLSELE
# T1 sequence (P07237 18-508 partner): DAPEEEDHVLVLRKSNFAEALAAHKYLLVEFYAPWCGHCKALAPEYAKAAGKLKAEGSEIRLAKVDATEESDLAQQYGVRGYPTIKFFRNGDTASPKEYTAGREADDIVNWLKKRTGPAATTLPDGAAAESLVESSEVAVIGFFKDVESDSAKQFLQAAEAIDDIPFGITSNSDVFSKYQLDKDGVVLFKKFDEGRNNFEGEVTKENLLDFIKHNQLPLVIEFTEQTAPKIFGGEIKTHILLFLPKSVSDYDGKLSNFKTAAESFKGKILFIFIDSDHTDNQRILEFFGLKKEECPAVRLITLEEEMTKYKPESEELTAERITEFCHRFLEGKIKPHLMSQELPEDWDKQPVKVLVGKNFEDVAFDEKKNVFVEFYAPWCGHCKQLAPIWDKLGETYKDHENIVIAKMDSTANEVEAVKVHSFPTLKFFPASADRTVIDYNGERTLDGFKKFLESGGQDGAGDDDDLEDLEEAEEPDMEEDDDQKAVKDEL
smiles,measurement,setting,value
N[C@@H](Cn1ccc(=O)c(O)c1)C(=O)O [L-Mimosine],inhibition of the multiplication of certain cells,cell proliferation,reversible inhibitor
same,inhibition of cellular deoxyhypusyl hydroxylase activity,[1],block the cellular deoxyhypusyl hydroxylase activity
same,secretion of hydroxyproline-containing proteins (collagen secretion),[2],selectively inhibited
same,inhibition of secretion of procollagen type I,type I procollagen,potent inhibitor; also recorded: selectively suppressive effect
same,inhibition of purified human prolyl 4-hydroxylase,"[3]; cell-free system, FIG. 1",directly inhibit
same,Prolyl 4-hydroxylase ID50 (purified),"[3]; purified human enzyme, inhibitory dose that gives 50% reduction of the enzyme-mediated reaction, unit assumed",120 µM
